Where a chain is given by its changes, count along the chain named.
How the values were obtained:
hVAChT W331A = biological target: T1, hVAChT W331A (Homo sapiens, UniProt Q16572, W331A); assay: [3H]ACh transport; format: biochemical
T1 sequence (Q16572 1-532 W331A): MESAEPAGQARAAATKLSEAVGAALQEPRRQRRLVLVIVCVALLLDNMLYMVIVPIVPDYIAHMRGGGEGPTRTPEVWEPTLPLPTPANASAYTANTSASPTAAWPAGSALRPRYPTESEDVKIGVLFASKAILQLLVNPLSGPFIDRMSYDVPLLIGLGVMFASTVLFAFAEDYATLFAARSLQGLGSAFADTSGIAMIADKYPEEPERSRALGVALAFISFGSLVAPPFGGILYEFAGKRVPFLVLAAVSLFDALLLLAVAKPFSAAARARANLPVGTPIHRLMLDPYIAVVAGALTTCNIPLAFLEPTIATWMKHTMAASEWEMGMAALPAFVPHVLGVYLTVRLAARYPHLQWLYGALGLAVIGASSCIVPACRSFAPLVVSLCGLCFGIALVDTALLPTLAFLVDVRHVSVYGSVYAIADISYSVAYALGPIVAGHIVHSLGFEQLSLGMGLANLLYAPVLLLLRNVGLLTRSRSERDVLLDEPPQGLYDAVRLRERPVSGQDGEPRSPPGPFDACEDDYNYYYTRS

hVAChT Y60W = biological target: T2, hVAChT Y60W (Homo sapiens, UniProt Q16572, Y60W); assay: [3H]ACh transport; format: biochemical
T2 sequence (Q16572 1-532 Y60W): T1 sequence (Q16572 1-532 W331A) with Y60W, A331W

hVAChT W325F = biological target: T3, hVAChT W325F (Homo sapiens, UniProt Q16572, W325F); assay: ACh equilibrium binding by competition against [3H]vesamicol
T3 sequence (Q16572 1-532 W325F): T1 sequence (Q16572 1-532 W331A) with W325F, A331W

hVAChT M316A = biological target: T4, hVAChT M316A (Homo sapiens, UniProt Q16572, M316A); assay: as above
T4 sequence (Q16572 1-532 M316A): T1 sequence (Q16572 1-532 W331A) with M316A, A331W

hVAChT C388A = biological target: T5, hVAChT C388A (Homo sapiens, UniProt Q16572, C388A); assay: [3H]vesamicol saturation binding; settings: pH 7.4
T5 sequence (Q16572 1-532 C388A): T1 sequence (Q16572 1-532 W331A) with A331W, C388A

CC(=O)OCC[N+](C)(C)C [ACh, acetylcholine]
[3H]ACh transport (hVAChT W331A): no transport
Vmax/Bmax, ACh transport normalized to Bmax (hVAChT Y60W; pH 7.4): 7.9 ± 0.8 min⁻¹
Km (hVAChT Y60W; read-out: KM, Michaelis-Menten constant for ACh transport, pH 7.4): 920 ± 170 µM
Kd (hVAChT W325F): 7.3 ± 1.6 mM
FHA, fraction of the ACh sites that have high affinity (hVAChT W325F; W325F hVAChT, pH 7.4): 0.74 ± 0.09
Kd (hVAChT M316A): 8.3 ± 0.7 mM
FHA, fraction of the ACh sites that have high affinity (hVAChT M316A; M316A hVAChT, pH 7.4): 0.74 ± 0.03

O[C@@H]1CCCC[C@H]1N1CCC(c2ccccc2)CC1 (racemic) [vesamicol, ( )-trans-2-(4-phenylpiperidino)cyclohexanol]
Bmax, maximal specific [3H]vesamicol binding (VAChT expression level) (hVAChT C388A): 59 ± 1 pmol/mg
